Assay results reported in ChEMBL document CHEMBL6134905, “Double Swords in One: Novel Selective PI3K/110β PROTAC Degraders for the Treatment of Multidrug-Resistant Cancer by Activating ERS and Inhibiting P-gp” (J Med Chem, 2025).
Calls of active or inactive are those of the source. The calls are words filed in the database; no cut-off is given here.

Legend:
[1] = molecular target: T1, von Hippel-Lindau disease tumor suppressor/Phosphatidylinositol 4,5-bisphosphate 3-kinase catalytic subunit beta isoform (Homo sapiens, UniProt P42338+P40337); assay: PROTAC activity at PI3K-p110beta/VHL in human MCF7/ADM cells assessed as reduction in PI3K-p110beta mRNA level at 25 uM measured for 24 hrs by qRT-PCR analysis; format: cell-based
[2] = Induction of apoptosis in human MCF7/ADM cells at 25 uM incubated for 24 hrs in presence of TUDCA by Annexin V-FITC/PI staining based flow cytometry analysis (reference value: 5.20%); format: functional
MCF7/ADM = assay: Antitumor activity against human MCF7/ADM cells xenografted in BALB/c mouse assessed as reduction in tumor volume at 50 mg/kg, ip measured every 2 days in presence of Adriamycin; format: functional, organism-based; conditions: time 2.0 day
[3] = Induction of apoptosis in human MCF7/ADM cells at 6.25 uM incubated for 24 hrs by Annexin V-FITC/PI staining based flow cytometry analysis (reference value: 5.20%); format: functional
[4] = Induction of apoptosis in human MCF7/ADM cells at 12.5 uM incubated for 24 hrs by Annexin V-FITC/PI staining based flow cytometry analysis (reference value: 5.20%); format: functional
[5] = molecular target: T2, von Hippel-Lindau disease tumor suppressor/Phosphatidylinositol 4,5-bisphosphate 3-kinase catalytic subunit alpha isoform (Homo sapiens, UniProt P42336+P40337); assay: PROTAC activity at PI3K-p110alpha/VHL in human MCF7/ADM cells assessed as reduction in PI3K-p110alpha mRNA level at 25 uM measured for 24 hrs by qRT-PCR analysis; format: cell-based
[6] = molecular target: T1, von Hippel-Lindau disease tumor suppressor/Phosphatidylinositol 4,5-bisphosphate 3-kinase catalytic subunit beta isoform; assay: PROTAC activity at PI3K-p110beta/VHL in human A549/DDP cells assessed as reduction in PI3K-p110beta mRNA level at 25 uM measured for 24 hrs by qRT-PCR analysis; format: cell-based
[7] = molecular target: T2, von Hippel-Lindau disease tumor suppressor/Phosphatidylinositol 4,5-bisphosphate 3-kinase catalytic subunit alpha isoform; assay: PROTAC activity at PI3K-p110alpha/VHL in human A549/DDP cells assessed as reduction in PI3K-p110alpha mRNA level at 25 uM measured for 24 hrs by qRT-PCR analysis; format: cell-based
A549/CDDP [8] = assay: Induction of apoptosis in human A549/DDP cells at 12.5 uM incubated for 24 hrs by Annexin V-FITC/PI staining based flow cytometry analysis (reference value: 4.27%); format: functional
A549/CDDP [9] = assay: Induction of apoptosis in human A549/DDP cells at 25 uM incubated for 24 hrs in presence of TUDCA by Annexin V-FITC/PI staining based flow cytometry analysis (reference value: 4.27%); format: functional
A549/CDDP [10] = assay: Cytotoxicity against human A549/DDP cells at 100 uM incubated for 24 hrs; format: functional, cell-based

T1 sequence (P40337 whole entry, looked up, canonical isoform): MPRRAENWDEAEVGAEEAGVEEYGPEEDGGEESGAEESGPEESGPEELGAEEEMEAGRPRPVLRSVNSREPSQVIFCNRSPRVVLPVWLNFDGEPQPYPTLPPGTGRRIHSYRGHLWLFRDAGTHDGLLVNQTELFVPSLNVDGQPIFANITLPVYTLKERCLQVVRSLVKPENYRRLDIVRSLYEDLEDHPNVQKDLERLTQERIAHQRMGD
T1 sequence (P42338 whole entry, looked up, canonical isoform): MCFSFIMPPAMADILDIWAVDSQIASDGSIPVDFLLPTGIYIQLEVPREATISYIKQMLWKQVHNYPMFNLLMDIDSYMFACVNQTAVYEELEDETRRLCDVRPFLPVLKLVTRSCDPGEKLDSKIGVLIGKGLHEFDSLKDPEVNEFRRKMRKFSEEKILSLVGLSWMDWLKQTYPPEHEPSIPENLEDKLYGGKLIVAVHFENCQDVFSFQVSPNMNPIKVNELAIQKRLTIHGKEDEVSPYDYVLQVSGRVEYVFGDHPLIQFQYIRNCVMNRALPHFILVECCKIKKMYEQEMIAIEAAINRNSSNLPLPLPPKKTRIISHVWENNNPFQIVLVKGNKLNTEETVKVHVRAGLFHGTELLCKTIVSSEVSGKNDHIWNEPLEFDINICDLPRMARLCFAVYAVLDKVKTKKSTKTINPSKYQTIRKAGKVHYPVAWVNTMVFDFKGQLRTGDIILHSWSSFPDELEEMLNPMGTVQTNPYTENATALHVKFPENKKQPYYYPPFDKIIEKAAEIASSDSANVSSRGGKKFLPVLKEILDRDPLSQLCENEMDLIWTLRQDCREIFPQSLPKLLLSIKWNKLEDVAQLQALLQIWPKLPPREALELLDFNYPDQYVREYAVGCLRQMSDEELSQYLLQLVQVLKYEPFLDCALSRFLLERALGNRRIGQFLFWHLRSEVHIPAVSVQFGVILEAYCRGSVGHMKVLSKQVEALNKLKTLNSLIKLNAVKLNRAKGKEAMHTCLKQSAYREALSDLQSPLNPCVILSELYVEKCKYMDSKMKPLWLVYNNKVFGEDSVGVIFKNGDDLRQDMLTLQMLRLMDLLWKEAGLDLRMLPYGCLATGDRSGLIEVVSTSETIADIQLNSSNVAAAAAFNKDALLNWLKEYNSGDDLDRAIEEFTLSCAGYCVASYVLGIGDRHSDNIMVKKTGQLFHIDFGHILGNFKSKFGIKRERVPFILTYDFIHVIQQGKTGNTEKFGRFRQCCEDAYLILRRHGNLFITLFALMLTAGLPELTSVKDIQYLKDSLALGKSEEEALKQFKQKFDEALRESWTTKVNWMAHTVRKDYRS
T2 sequence (P40337 whole entry, looked up, canonical isoform): as the sequence (P40337 whole entry, looked up, canonical isoform) above
T2 sequence (P42336 whole entry, looked up, canonical isoform): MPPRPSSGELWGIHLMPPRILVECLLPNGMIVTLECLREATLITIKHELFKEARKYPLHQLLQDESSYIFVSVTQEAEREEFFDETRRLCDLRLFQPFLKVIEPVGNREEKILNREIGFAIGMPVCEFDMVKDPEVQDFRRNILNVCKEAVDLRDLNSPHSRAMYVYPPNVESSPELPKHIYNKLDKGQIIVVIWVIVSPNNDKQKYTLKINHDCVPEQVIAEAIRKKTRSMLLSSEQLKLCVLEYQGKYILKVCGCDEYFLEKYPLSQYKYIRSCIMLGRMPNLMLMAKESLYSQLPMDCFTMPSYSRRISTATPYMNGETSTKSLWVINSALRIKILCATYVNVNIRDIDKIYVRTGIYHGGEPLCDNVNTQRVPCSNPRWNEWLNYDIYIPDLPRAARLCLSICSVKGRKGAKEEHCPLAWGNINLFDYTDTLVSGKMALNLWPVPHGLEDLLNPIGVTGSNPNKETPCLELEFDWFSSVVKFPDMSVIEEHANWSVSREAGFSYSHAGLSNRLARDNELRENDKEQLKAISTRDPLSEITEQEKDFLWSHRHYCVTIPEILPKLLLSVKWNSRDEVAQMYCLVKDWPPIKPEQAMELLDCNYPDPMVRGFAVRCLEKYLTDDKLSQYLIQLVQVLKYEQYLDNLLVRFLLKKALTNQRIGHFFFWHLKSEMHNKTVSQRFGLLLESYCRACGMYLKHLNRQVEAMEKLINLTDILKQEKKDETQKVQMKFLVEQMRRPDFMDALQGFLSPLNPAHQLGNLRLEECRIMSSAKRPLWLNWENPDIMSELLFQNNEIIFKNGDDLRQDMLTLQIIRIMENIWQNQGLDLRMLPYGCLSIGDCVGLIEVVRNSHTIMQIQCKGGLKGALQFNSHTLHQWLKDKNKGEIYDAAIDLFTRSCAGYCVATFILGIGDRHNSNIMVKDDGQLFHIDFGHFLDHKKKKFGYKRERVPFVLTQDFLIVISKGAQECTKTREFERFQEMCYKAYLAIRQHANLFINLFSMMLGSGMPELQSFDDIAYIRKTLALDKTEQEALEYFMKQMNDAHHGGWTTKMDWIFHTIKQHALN

| Activity [1] | Activity [5] | Activity [6] | Activity [7] | Structure (SMILES) | Activity [2] [%] | Activity (MCF7/ADM) | Activity [3] [%] | Activity [4] [%] | Activity (A549/CDDP [8]) [%] | Activity (A549/CDDP [9]) [%] | Activity (A549/CDDP [10]) |
| --- | --- | --- | --- | --- | --- | --- | --- | --- | --- | --- | --- |
| Active | Active |  |  | Cc1cc(C(C)Nc2ccccc2C(=O)NCCOCCOCCC(=O)N[C@H](C(=O)N2C[C@H](O)C[C@H]2C(=O)NCc2ccc(-c3scnc3C)cc2)C(C)(C)C)c2nc(N3CCOCC3)cc(=O)n2c1 (stereo partly specified) | 21.59 | Active | 6.88 | 15.59 |  |  |  |
|  |  | inactive | inactive | Cc1cc(C(C)Nc2ccccc2C(=O)NCCCCCCC(=O)N[C@H](C(=O)N2C[C@H](O)C[C@H]2C(=O)NCc2ccc(-c3scnc3C)cc2)C(C)(C)C)c2nc(N3CCOCC3)cc(=O)n2c1 (stereo partly specified) |  |  |  |  | 15.76 | 22.84 | Active |
